Assay results reported in patent US11369593B2 (Texas Tech University System, priority 2017, dated 2022).

Tested on: PC12 cells
Test: Etoposide-induced apoptosis in PC12 cells, cell viability
Format: cell-based
Settings: etoposide-induced apoptosis, PC12 cells; for viability at 0.1 µM / viability at 0.3 µM / viability at 1 µM / viability at 3 µM / viability at 10 µM / viability at 30 µM: Rattus norvegicus, PC-12; for viability at 0.1 µM / % Viability 0.1 μM: 0.1 μM compound, vehicle 52.1 ± 7.32; for viability at 0.3 µM / % Viability 0.3 μM: 0.3 μM compound; for viability at 1 µM / % Viability 1 μM: 1 μM compound; for viability at 1 µM: read-out: % Viability 1 μM; for viability at 3 µM / % Viability 3 μM: 3 μM compound; for viability at 3 µM: read-out: % Viability 3 μM; for viability at 10 µM / % Viability 10 μM: 10 μM compound; for viability at 10 µM: read-out: % Viability 10 μM; for viability at 30 µM / % Viability 30 μM: 30 μM compound; for viability at 30 µM: read-out: % Viability 30 μM

Row | Compound | viability at 0.1 µM [%] | viability at 0.3 µM [%] | viability at 1 µM [%] | viability at 3 µM [%] | viability at 10 µM [%] | viability at 30 µM [%] | % Viability 0.1 μM [%] | % Viability 0.3 μM [%] | % Viability 1 μM [%] | % Viability 3 μM [%] | % Viability 10 μM [%] | % Viability 30 μM [%]
1 | CCOC(=O)Nc1ccc(NCc2cc(F)cc(C(F)(F)F)c2)nc1N [JG-38-4, Ethyl (2-amino-6-((3-fluoro-5-(trifluoromethyl)benzyl)amino)pyridin-3-yl)carbamate] | 69 ± 13.6 | 64.7 ± 12.5 | 69.7 ± 14.9 | 72.9 ± 13.2 | 90.1 ± 15.1 | 78.2 ± 12.5 |  |  |  |  |  | 
2 | CCOC(=O)Nc1ccc(NCc2ccccc2)nc1N [AM-2-3, Ethyl (2-amino-6-(benzylamino)pyridin-3-yl)carbamate] | 83.2 ± 21.9 | 87.5 ± 1.65 | 93.5 ± 5.31 | 78.6 ± 10.8 | 92.2 ± 3.97 | 88.8 ± 5.02 |  |  |  |  |  | 
3 | CC(C)(C)OC(=O)Nc1ccc(NCc2ccc(F)cc2)nc1N [NK-13-1, tert-butyl 6-(4-fluorobenzylamino)-2-aminopyridin-3-ylcarbamate] | 53.5 ± 9.17 | 47.6 ± 3.19 | 57.2 ± 13.6 | 42.2 ± 6.03 | 68.1 ± 21.6 | 64.4 ± 12.8 |  |  |  |  |  | 
4 | Nc1nc(NCc2ccccc2C(F)(F)F)ccc1NC(=O)OCC(Cl)(Cl)Cl [JG-35-4, 2,2,2-trichloroethyl (2-amino-6-((2-(trifluoromethyl)benzyl)amino)pyridin-3-yl)carbamate] |  |  | 92.2 ± 37.2 | 108 ± 7.32 | 93.2 ± 21.6 | 71.6 ± 20.8 |  |  |  |  |  | 
5 | CCOC(=O)Nc1ccc(NCc2ccc(F)cc2F)nc1N [NK-64-3, Ethyl (2-amino-6-((2,4-difluorobenzyl)amino)pyridin-3-yl)carbamate] | 84 ± 21.9 | 93 ± 14.1 | 91 ± 19.8 | 78 ± 16.8 | 89.2 ± 4.4 | 90.7 ± 12.7 |  |  |  |  |  | 
6 | CCOC(=O)Nc1ccc(NCc2ccccc2C(F)(F)F)nc1N [JG-34-4, Ethyl (2-amino-6-((2-(trifluoromethyl)benzyl)amino)pyridin-3-yl)carbamate] | 74.6 ± 2.18 | 72.4 ± 16.4 | 95.1 ± 10.3 | 91.5 ± 12.9 | 95.4 ± 19.3 | 77.7 ± 6.86 |  |  |  |  |  | 
7 | CCOC(=O)Nc1ccc(NCc2ccc(F)cc2)nc1 [NK-31-3] |  |  | 109 ± 35.9 | 110 ± 19.4 | 101 ± 15.9 | 69.3 ± 14.9 |  |  |  |  |  | 
8 | CCOC(=O)Nc1ccc(OCc2ccc(C(F)(F)F)cc2)nc1N [NK-60-3, Ethyl (2-amino-6-((4-(trifluoromethyl)benzyl)oxy)pyridin-3-yl)carbamate] | 64 ± 11 | 83.8 ± 11.5 | 77.1 ± 7.31 | 69.9 ± 8.54 | 71.4 ± 19.6 | 77 ± 6.87 |  |  |  |  |  | 
9 | Cc1ccc(OC(=O)Nc2ccc(NCc3ccc(F)cc3)cc2N)cc1 [JG-48-6, p-tolyl (2-amino-4-((4-fluorobenzyl)amino)phenyl)carbamate] |  |  | 70 ± 16.1 | 91.6 ± 11 | 83.7 ± 2.26 | 67.5 ± 10.2 |  |  |  |  |  | 
10 | CCCCCCOC(=O)Nc1ccc(NCc2ccc(F)cc2)cc1N [NK-34-2, Hexyl (2-amino-4-((4-fluorobenzyl)amino)phenyl)carbamate] | 63 ± 11.8 | 61 ± 5.7 | 65.8 ± 6.14 | 60.1 ± 11.4 | 72.1 ± 13.4 | 73.2 ± 4.74 |  |  |  |  |  | 
11 | CCOC(=O)Nc1ccc(NC(C)c2ccccc2)nc1N (stereo not drawn) [NK-52-3, Ethyl (2-amino-6-((1-phenylethyl)amino)pyridin-3-yl)carbamate] | 50 ± 1.04 | 56 ± 4.21 | 56.7 ± 5.69 | 66.2 ± 4.77 | 53.2 ± 2.3 | 24 ± 6.78 |  |  |  |  |  | 
12 | CCOC(=O)Nc1ccc(NCc2ccc(C(F)(F)F)cc2)nc1 [AM-15-3, Ethyl (6-((4-(trifluoromethyl)benzyl)amino)pyridin-3-yl)carbamate] | 59.7 ± 6.74 | 54.1 ± 12.7 | 59 ± 12.9 | 64 ± 7.87 | 66.4 ± 4.11 | 52.9 ± 8.69 |  |  |  |  |  | 
13 | Hexyl (2-amino-6-((4-fluorobenzyl)amino)pyridin-3-yl)carbamate [NK-42-1] |  |  |  |  |  |  | 60.08 ± 3.34 | 59.19 ± 4.95 | 87.30 ± 18.26 | 78.46 ± 11.29 | 85.14 ± 11.29 | 78.95 ± 13.17
14 | CCOC(=O)Nc1ccc(NCc2cccc(OC)c2)nc1N [NK-67-3, Ethyl (2-amino-6-((3-methoxybenzyl)amino)pyridin-3-yl)carbamate] | 59.2 ± 3.98 | 48.6 ± 9.49 | 82.8 ± 19.8 | 87.5 ± 15 | 70.1 ± 3.36 | 63.8 ± 14 |  |  |  |  |  | 
15 | CCOC(=O)Nc1ccc(NCc2ccc3ccccc3c2)nc1N [AM-5-3, Ethyl (2-amino-6-((naphthalen-2-ylmethyl)amino)pyridin-3-yl)carbamate] | 70.5 ± 24.2 | 76.9 ± 20.8 | 81.7 ± 12.6 | 57.6 ± 6.35 | 65.1 ± 22.6 | 103 ± 1.31 |  |  |  |  |  | 
16 | CCOC(=O)Nc1ccc(NCCc2ccccc2)nc1N [JG-36-4, Ethyl (2-amino-6-(phenethylamino)pyridin-3-yl)carbamate] | 52.1 ± 11.5 | 56.9 ± 12 | 69.2 ± 7.1 | 50 ± 9.09 | 59.6 ± 9.05 | 60.5 ± 5.82 |  |  |  |  |  | 
17 | CCOC(=O)Nc1ccc(NCc2ccc(-c3cccs3)cc2)nc1N [AM-11-3, Ethyl (2-amino-6-((4-(thiophen-2-yl)benzyl)amino)pyridin-3-yl)carbamate] | 64.1 ± 16.6 | 77.1 ± 25.2 | 89.8 ± 30.1 | 76.1 ± 12.8 | 89 ± 29.1 | 35.3 ± 5.69 |  |  |  |  |  | 
18 | Ethyl (6-((4-fluorobenzyl)amino)-4-methylpyridin-3-yl)carbamate [NK-48-3] |  |  |  |  |  |  | 54.78 ± 2.77 | 57.46 ± 4.02 | 57.03 ± 1.81 | 53.80 ± 1.98 | 57.06 ± 4.28 | 63.25 ± 3.32
19 | CCOC(=O)Nc1ccc(NCc2ccc(OC)cc2)nc1N [AM-4-3, Ethyl (2-amino-6-((4-methoxybenzyl)amino)pyridin-3-yl)carbamate] | 86.8 ± 3.14 | 81.4 ± 13 | 71.8 ± 25.7 | 79.7 ± 10.6 | 90 ± 16.3 | 106 ± 13.3 |  |  |  |  |  | 
20 | CCOC(=O)Nc1ccc(NCc2cccc(C)c2)nc1N [NK-66-3, Ethyl (2-amino-6-((3-methylbenzyl)amino)pyridin-3-yl)carbamate] | 94.7 ± 25.8 | 110 ± 11.3 | 101 ± 17.4 | 82.3 ± 31.4 | 86.1 ± 26.9 | 107 ± 9.4 |  |  |  |  |  | 
21 | Nc1nc(NCc2ccc(F)cc2)ccc1NC(=O)Oc1ccccc1 [NK-41-1, Phenyl (2-amino-6-((4-fluorobenzyl)amino)pyridin-3-yl)carbamate] | 57.5 ± 3.62 | 53.4 ± 0.8 | 58.1 ± 2.08 | 59 ± 6.87 | 68.9 ± 7.71 | 70.3 ± 10.6 |  |  |  |  |  | 
